From patent EP4818157A1, “N-SUBSTITUTED CYCLIC AMIDE COMPOUND” (Kissei Pharmaceutical Co., Ltd., priority 2023, dated 2025)

Molecular target: T1, human TSHR (Homo sapiens, UniProt P16473)
T1 construct: expressed in transfected cells
Test: Measurement of antagonist activity using TSH-induced cAMP production in human TSHR-stably expressing CHO cells
Format: cell-based
Conditions: human TSH final concentration 50 ng/mL
Protocol: Measurement of Antagonist Activity Using TSH-induced cAMP Production in Human TSHR-stably Expressing CHO Cells as an Indicator
A gene sequence of human TSHR (reference number NM_000369.2) was inserted into a multiple cloning site of pcDNA3.1(+). The prepared plasmid vector was introduced into CHO cells by a lipofection method to establish human TSHR stably expressing CHO cells. The obtained cells were seeded in a poly-D-lysine-coated 96-well plate at 5 x 10^4 cells/well, and cultured for 1 day in F12 medium containing 10% FBS, 400 µg/mL G418, 50 U/mL penicillin, and 50 µg/mL streptomycin under conditions of 37°C and 5% CO2. After removing a medium, the cells were washed twice with 100 µL per well of an assay buffer (Hanks' Balanced Salt Solution containing 20 mM HEPES and 1 mM IBMX). 30 µL of an assay buffer containing a test compound was added to a well, and the mixture was incubated at room temperature for 15 minutes. Next, 30 µL of an assay buffer containing human TSH (R&D Systems, Inc., final concentration 50 ng/mL) was added, and the mixture was incubated at 37°C for 1 hour. The supernatant was removed, and Lysis and Detection Buffer 2 (Cisbio) was added to prepare a cell lysate by incubating at room temperature for 1 hour. According to the instructions for use of a cAMP Gs HiRange kit (Cisbio), a cell lysate was reacted with d2-labeled cAMP and an anti-cAMP Europium Cryptate labeled antibody (Cisbio) in a 384-well white microplate. Next, a fluorescence intensity ratio (measurement wavelengths 665 nm/620 nm) was measured using a multiplate reader (PHERAstar FSX, BMG LABTECH Japan). A fluorescence intensity ratio of each sample was converted into a cAMP content using a standard curve. A cAMP content was converted into a percentage of a control value, and a cAMP production rate was calculated. Using Prism (Graph Pad Software Inc.), a cAMP production rate was plotted against a test compound concentration, and an IC50 value was calculated. The IC50 of each test compound is shown in the above tables. In the tables, IC50 < 3.0 µM was denoted as A, and 3.0 µM ≤ IC50 < 30 µM was denoted as B. The case where activity was observed but an IC50 value could not be calculated was denoted as C.

T1 sequence (P16473 21-764): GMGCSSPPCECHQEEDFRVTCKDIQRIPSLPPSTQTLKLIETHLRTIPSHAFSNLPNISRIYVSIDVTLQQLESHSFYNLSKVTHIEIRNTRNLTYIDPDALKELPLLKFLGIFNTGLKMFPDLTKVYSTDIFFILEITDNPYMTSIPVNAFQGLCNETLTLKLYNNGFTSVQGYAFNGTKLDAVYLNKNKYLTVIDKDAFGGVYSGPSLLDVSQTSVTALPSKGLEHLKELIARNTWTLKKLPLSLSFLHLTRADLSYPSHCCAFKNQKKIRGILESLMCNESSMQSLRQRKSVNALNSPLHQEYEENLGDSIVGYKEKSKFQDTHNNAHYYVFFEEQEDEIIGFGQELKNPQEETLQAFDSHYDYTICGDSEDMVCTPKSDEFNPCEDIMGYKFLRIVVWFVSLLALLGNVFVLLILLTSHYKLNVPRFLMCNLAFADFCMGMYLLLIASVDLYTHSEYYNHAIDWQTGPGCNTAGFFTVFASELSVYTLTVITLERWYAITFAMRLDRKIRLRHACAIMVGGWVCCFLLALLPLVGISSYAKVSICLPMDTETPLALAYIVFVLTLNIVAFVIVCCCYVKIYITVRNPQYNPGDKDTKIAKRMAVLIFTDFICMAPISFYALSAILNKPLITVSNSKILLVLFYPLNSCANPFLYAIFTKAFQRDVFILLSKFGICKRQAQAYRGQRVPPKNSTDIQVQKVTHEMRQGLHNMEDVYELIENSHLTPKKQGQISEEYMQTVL

| IC50 [µM] | SMILES |
| --- | --- |
| < 3 | C[C@@H]1CC[C@@H](NC(N)=O)C(=O)N1Cc1cc(C(F)(F)F)cc(Cl)c1F (relative stereo) [Example A-3, 1-((3R^*,6R^*)-1-(3-chloro-2-fluoro-5-(trifluoromethyl)benzyl)-6-methyl-2-oxopiperidin-3-yl)urea] |
| 3 to 30 | CN(C)Cc1cccc2c1N(Cc1cc(C(F)(F)F)ccc1F)C(=O)[C@H](NC(N)=O)C2 [Example F-3, (R)-1-(8-((dimethylamino)methyl)-1-(2-fluoro-5-(trifluoromethyl)benzyl)-2-oxo-1,2,3,4-tetrahydroquinolin-3-yl)urea] |
| 3 to 30 | C[C@@H]1CC[C@@H](NC(N)=O)C(=O)N1Cc1cc(C#CC2CC2)ccc1F (relative stereo) [Example A-10, 1-((3R^*,6R^*)-1-(5-(cyclopropylethynyl)-2-fluorobenzyl)-6-methyl-2-oxopiperidin-3-yl)urea] |
| > 30 | NC(=O)Nc1cc(CCC(=O)O)cn(Cc2cc(C(F)(F)F)ccc2F)c1=O [Example B-2, 3-(1-(2-fluoro-5-(trifluoromethyl)benzyl)-6-oxo-5-ureido-1,6-dihydropyridin-3-yl)propanoic acid] |
| < 3 | O=C(N[C@@H]1CC[C@@H](C(F)F)N(Cc2cc(C(F)(F)F)ccc2F)C1=O)C1CC1 [Example A-28, N-((3R,6S)-6-(difluoromethyl)-1-(2-fluoro-5-(trifluoromethyl)benzyl)-2-oxopiperidin-3-yl)cyclopropanecarboxamide] |
| < 3 | NC(=O)N[C@@H]1Cc2ccc(C(F)F)cc2N(Cc2cc(S(F)(F)(F)(F)F)ccc2F)C1=O [Example C-19, (R)-1-(7-(difluoromethyl)-1-(2-fluoro-5-(pentafluorosulfanyl)benzyl)-2-oxo-1,2,3,4-tetrahydroquinolin-3-yl)urea] |
| > 30 | CN(C)C[C@@H]1CC[C@@H](NC(N)=O)C(=O)N1Cc1cc(C(F)(F)F)ccc1F [Example D-9, 1-((3R,6S)-6-((dimethylamino)methyl)-1-(2-fluoro-5-(trifluoromethyl)benzyl)-2-oxopiperidin-3-yl)urea] |
| 3 to 30 | C[C@@H]1CC[C@@H](NC(N)=O)C(=O)N1Cc1cc(Br)ccc1F (relative stereo) [Example A-1, 1-((3R^*,6R^*)-1-(5-bromo-2-fluorobenzyl)-6-methyl-2-oxopiperidin-3-yl)urea] |
| < 3 | CC(C)(C)OC(=O)NCC[C@@H]1C[C@H](NC(N)=O)C(=O)N(Cc2cc(C(F)(F)F)ccc2F)C1 (relative stereo) [Example A-19, tert-butyl (2-((3R*,5S*)-1-(2-fluoro-5-(trifluoromethyl)benzyl)-6-oxo-5-ureidopiperidin-3-yl)ethyl)carbamate] |
| < 3 | C[C@@H]1CC[C@@H](NC(N)=O)C(=O)N1Cc1cc(OCc2ccccc2)ccc1F (relative stereo) [Example A-11, 1-((3R^*,6R^*)-1-(5-(benzyloxy)-2-fluorobenzyl)-6-methyl-2-oxopiperidin-3-yl)urea] |
| 3 to 30 | Cc1ccc(NC(=O)C(F)(F)F)c(=O)n1Cc1cc(C(F)(F)F)cc(Cl)c1F [Example E-8, N-(1-(3-chloro-2-fluoro-5-(trifluoromethyl)benzyl)-6-methyl-2-oxo-1,2-dihydropyridin-3-yl)-2,2,2-trifluoroacetamide] |
| < 3 | CCOC[C@@H]1CC[C@@H](NC(N)=O)C(=O)N1Cc1cc(C(F)(F)F)ccc1F [Example D-7, 1-((3R,6S)-6-(ethoxymethyl)-1-(2-fluoro-5-(trifluoromethyl)benzyl)-2-oxopiperidin-3-yl)urea] |
| < 3 | Cc1ccc(NC(=O)N2CCC2)c(=O)n1Cc1cc(C(F)(F)F)cc(Cl)c1F [Example E-9, N-(1-(3-chloro-2-fluoro-5-(trifluoromethyl)benzyl)-6-methyl-2-oxo-1,2-dihydropyridin-3-yl)azetidine-1-carboxamide] |
| < 3 | Cc1ccc(NC(N)=O)c(=O)n1Cc1cc(C(F)(F)F)cc(Cl)c1F [Example B-5, 1-(1-(3-chloro-2-fluoro-5-(trifluoromethyl)benzyl)-6-methyl-2-oxo-1,2-dihydropyridin-3-yl)urea] |
| < 3 | NC(=O)N[C@@H]1Cc2ccc(C(F)F)cc2N(Cc2cc(C(O)(C(F)(F)F)C(F)(F)F)ccc2F)C1=O [Example C-20, (R)-1-(7-(difluoromethyl)-1-(2-fluoro-5-(1,1,1,3,3,3-hexafluoro-2-hydroxypropan-2-yl)benzyl)-2-oxo-1,2,3,4-tetrahydroquinolin-3-yl)urea] |
| 3 to 30 | C[C@H]1CC[C@@H](NC(N)=O)C(=O)N1CCc1cccc(C(F)(F)F)c1 (relative stereo) [Example A-23, 1-((3R^*,6S^*)-6-methyl-2-oxo-1-(3-(trifluoromethyl)phenethyl)piperidin-3-yl)urea] |
| < 3 | NC(=O)N[C@@H]1CC[C@@H](C(F)F)N(Cc2cc(C(F)(F)F)ccc2F)C1=O [Example A-17, 1-((3R,6S)-6-(difluoromethyl)-1-(2-fluoro-5-(trifluoromethyl)benzyl)-2-oxopiperidin-3-yl)urea] |
| 3 to 30 | NC(=O)N[C@@H]1CC[C@@H](CO)N(Cc2cc(C(F)(F)F)ccc2F)C1=O [Example D-4, 1-((3R,6S)-1-(2-fluoro-5-(trifluoromethyl)benzyl)-6-(hydroxymethyl)-2-oxopiperidin-3-yl)urea] |
| 3 to 30 | CC(c1cc(C(F)(F)F)ccc1F)N1C(=O)[C@H](NC(N)=O)Cc2ccc(F)cc21 (stereo partly drawn) [Example C-24, 1-((3R)-7-fluoro-1-(1-(2-fluoro-5-(trifluoromethyl)phenyl)ethyl)-2-oxo-1,2,3,4-tetrahydroquinolin-3-yl)urea] |
| < 3 | NC(=O)N[C@@H]1Cc2ccc(F)cc2N(Cc2cc(C(F)F)ccc2F)C1=O [Example C-11, (R)-1-(1-(5-(difluoromethyl)-2-fluorobenzyl)-7-fluoro-2-oxo-1,2,3,4-tetrahydroquinolin-3-yl)urea] |
| > 30 | NC(=O)N[C@@H]1CC[C@@H](CN2CCCC2)N(Cc2cc(C(F)(F)F)ccc2F)C1=O [Example D-5, 1-((3R,6S)-1-(2-fluoro-5-(trifluoromethyl)benzyl)-2-oxo-6-(pyrrolidin-1-ylmethyl)piperidin-3-yl)urea] |
| < 3 | Cc1ccc(NC(=O)NC2CC2)c(=O)n1Cc1cc(C(F)(F)F)cc(Cl)c1F [Example B-11, 1-(1-(3-chloro-2-fluoro-5-(trifluoromethyl)benzyl)-6-methyl-2-oxo-1,2-dihydropyridin-3-yl)-3-cyclopropylurea] |
| < 3 | CC(C)(C)OC(=O)Nc1ccc2c(c1)OC(CC(N)=O)C(=O)N2Cc1cc(C(F)(F)F)ccc1F (stereo not drawn) [Example F-8, tert-butyl (2-(2-amino-2-oxoethyl)-4-(2-fluoro-5-(trifluoromethyl)benzyl)-3-oxo-3,4-dihydro-2H-benzo[b][1,4]oxazin-7-yl)carbamate] |
| > 30 | NC(=O)N[C@@H]1C[C@H](F)CN(Cc2cc(C(F)(F)F)ccc2F)C1=O [Example A-18, 1-((3R,5S)-5-fluoro-1-(2-fluoro-5-(trifluoromethyl)benzyl)-2-oxopiperidin-3-yl)urea] |
| < 3 | Cc1ccc2c(c1)N(Cc1cccc(C(F)(F)F)c1)C(=O)[C@H](NC(N)=O)C2 [Example C-6, (R)-1-(7-methyl-2-oxo-1-(3-(trifluoromethyl)benzyl)-1,2,3,4-tetrahydroquinolin-3-yl)urea] |
| < 3 | NC(=O)N[C@@H]1Cc2ccsc2N(Cc2cc(C(F)(F)F)ccc2F)C1=O [Example F-4, (R)-1-(7-(2-fluoro-5-(trifluoromethyl)benzyl)-6-oxo-4,5,6,7-tetrahydrothieno[2,3-b]pyridin-5-yl)urea] |
| < 3 | C[C@@H]1CC[C@@H](NC(N)=O)C(=O)N1Cc1cc(CCc2ccccc2)ccc1F (relative stereo) [Example A-12, 1-((3R^*,6R^*)-1-(2-fluoro-5-phenethylbenzyl)-6-methyl-2-oxopiperidin-3-yl)urea] |
| 3 to 30 | NC(=O)N[C@@H]1Cc2ccccc2N(CCc2ccccc2)C1=O [Example C-25, (R)-1-(2-oxo-1-phenethyl-1,2,3,4-tetrahydroquinolin-3-yl)urea] |
| < 3 | NC(=O)N[C@@H]1Cc2ccc(Cl)cc2N(Cc2cc(C(F)F)ccc2F)C1=O [Example C-12, (R)-1-(7-chloro-1-(5-(difluoromethyl)-2-fluorobenzyl)-2-oxo-1,2,3,4-tetrahydroquinolin-3-yl)urea] |

| SMILES | IC50 [µM] |
| --- | --- |
| NC(=O)CC1Oc2ccccc2N(Cc2cc(C(F)(F)F)ccc2F)C1=O (stereo not drawn) [Example F-7, 2-(4-(2-fluoro-5-(trifluoromethyl)benzyl)-3-oxo-3,4-dihydro-2H-benzo[b][1,4]oxazin-2-yl)acetamide] | > 30 |
